Reference: ChEMBL document CHEMBL3430912, “GSK Tres Cantos Anti-Kinetoplastid Screening (TCAKS) Data”
pIC50: −log10 of the molar value.

Experiments:
[1] = test system: Trypanosoma cruzi; assay: (§1) GSK_TCAKS: pIC50 H2C9 Imaging: H9c2 Host Cardiomyocytes. […] Cells were then washed once with PBS before infection. T. cruzi trypomastigotes, collected at days 5 to 8 after infection from LLC-MK2 parasite infected cultures, were allowed to swim out for 4h at 37C from a centrifuged pellet (2,500 rpm/10 min/room temperature). Trypomastigotes were then collected and counted in a CASY Cell Counter. Trypomastigotes, in supplemented DMEM, were added to H9c2 cultures in a multiplicity of infection of 1 and incubated for 18 h. Cells were washed once with PBS before incubation of the infected H9c2 monolayer with trypsin (Life-Technologies) to detach cells from the flask. Cells were counted in a CASY Cell Counter using a 150 um capillary and their density set at 5 * 10^4 cells per mL in supplemented assay DMEM. Infected H9c2 were dispensed into 384-well poly-lysine coated assay plates at 50uL per well using a Multidrop Combi dispenser. After seeding them, the plates were incubated at 37C, 5% CO2 for 72h. Cultures were then fixed and stained by addition of 50 uL of a solution containing 8% formaldehyde and 4 uM DRAQ5 DNA dye (BioStatus, UK) per well. […] Five images were collected per well for reliable statistical analysis. Automated image analysis was performed with a script developed on Acapella High Content Imaging and Analysis Software (PerkinElmer). Output: Number of H9c2 Host Cardiomyocytes nuclei to determine drug-related cytotoxicity.; format: functional, organism-based, Rattus norvegicus; conditions: H9c2, 4 h
[2] = test system: Trypanosoma cruzi; assay: as §1, with “Trypanosoma cruzi” for “H2C9”, “Infected Cells.” for “H9c2 Host Cardiomyocytes.”, “percentage” for “Number”, “infected cells per well as a second infection marker.” for “H9c2 Host Cardiomyocytes nuclei to determine drug-related cytotoxicity.”; format: functional, organism-based, Rattus norvegicus; conditions: H9c2, 4 h
[3] = GSK_TCAKS: pIC50 HepG2 human cell line viability assay using luminiscence. […] Seeding density was checked to ensure that new mono-layers were not more than 50% confluent at the time of harvesting. Cell suspension was added to 500 mL of the same medium at a final density of 1.2 * 10^5 cells/mL. This cell suspension was dispensed (25 uL, 3000 cells per well) into 384-well clear-bottom plates using a Multidrop Combi dispenser. Prior to addition of the cell suspension, the screening compounds (250 nL) were pre-dispensed into the plates with an Echo liquid handler. Plates were incubated for 48 h at 37C, 5% CO2. After incubation, plates equilibrated at room temperature for 30 min before proceeding to develop the luminescent signal. The signal developer, CellTiter-Glo Reagent, was allowed to equilibrate at room temperature for 30 min and added to the plates (25uL per well) using a Multidrop Combi dispenser. Plates were left for 10 min at room temperature for stabilization and then read using a ViewLux.; format: toxicity, cell-based
[4] = test system: Leishmania donovani; assay: (§2) GSK_TCAKS: pIC50 Leishmania donovani Imaging: Amastigotes/Macrophages. Assay plates (384-well) were prepared by adding 250nL of compound to each well. For single shot assay, the final compound concentration was 5 uM. […] Automated image analysis was performed with a script developed on Acapella High Content Imaging and Analysis Software (PerkinElmer). Output: Average number of amastigotes per macrophage cell were reported for each well.; format: functional, organism-based, Homo sapiens; conditions: THP-1
[5] = test system: Trypanosoma brucei brucei; assay: GSK_TCAKS: pIC50 Trypanosoma brucei viability assay using luminiscence. Assay plates (1536-well) were prepared. T. brucei cultures were harvested and counted in a CASY cell counter. A parasite suspension was prepared at a final concentration of 5 * 10^4 cells/mL in complete HMI9 medium and 6uL was dispensed to all wells containing compounds using a Multidrop Combi dispenser. 6uL of HMI9 media with 0.4% DMSO were dispensed to control columns. Plates were incubated for 24 h at 37C, 5% CO2 then tempered for 10 min at room temperature. ATP content was quantified by adding 4 uL of CellTiter-Glo Reagent (Promega) according to the manufacturer's instructions. Luminescence was measured using a ViewLux.; format: functional, organism-based; conditions: Lister 427, CASY
[6] = test system: Trypanosoma cruzi; assay: as §1, with “Trypanosoma cruzi” for “H2C9”, “Amastigotes/Cell.” for “H9c2 Host Cardiomyocytes.”, “number” for “Number”, “amastigotes per cell as infection level measurement.” for “H9c2 Host Cardiomyocytes nuclei to determine drug-related cytotoxicity.”; format: functional, organism-based, Rattus norvegicus; conditions: H9c2, 4 h
[7] = test system: Trypanosoma cruzi; assay: GSK_TCAKS: pIC50 Trypanosoma cruzi viability assay using beta-GAL activity. This assay was run at single shot at 5uM compound concentration per well. The biological reagents consisted of NIH-3T3 host cells and trypomastigotes parasitic cells; both cell types were set to a 3.3 * 10^5 cells/mL dilution in assay DMEM by means of a CASY cell counter device using a 60um capillary. 6 uL of the mixture were dispensed per well (about 1 * 10^3 host-cells and 1 * 10^3 parasites) with a Multidrop Combi dispenser. […] In all wells, the percentage of DMSO never exceeded 0.5%. Plates incubated for four days at 37C, 5% CO2. The substrate used for the assay fluorescence intensity (FLINT) readout was resorufin-beta-D-galactopiranoside (Sigma-Aldrich) at 5uM per well. It was diluted in PBS supplemented with the soft detergent Igepal (Fluka).; format: functional, organism-based, Mus musculus; conditions: Tulahuen, NIH3T3
[8] = test system: Leishmania donovani; assay: GSK_TCAKS: pIC50 Leishmania donovani viability assay using fluorescence intensity. Assay plates (1536-well) were prepared by adding 30nL per well of compound. For single shot assay, the final compound concentration was 5uM. […] Briefly, eGFP LdBOB axenic amastigotes were harvested, fixed and counted in a CASY cell counter (Roche-Applied Science). A final concentration of 1.5 * 10^5 cells per well were prepared in amastigote media containing 500 U/mL penicillin/streptomycin (Invitrogen) and 6uL was dispensed to each experimental well using a Multidrop Combi dispenser (Thermo Scientific). 6uL of assay media was dispensed to control columns used as reference for 100% compound response. Following incubation for 72 h at 37C, 5% CO2, 2 uL of resazurin was added to each well at a final concentration of 0.5 mM in phosphate buffered saline (PBS) with IGEPAL (Sigma-Aldrich), 0.05% (v/v).; format: functional, organism-based
[9] = test system: Leishmania donovani; assay: as §2, with “Infected Macrophages.” for “Amastigotes/Macrophages.”, “Percent” for “Average number”, “infected” for “amastigotes per”, “cells” for “cell”; format: functional, organism-based, Homo sapiens; conditions: THP-1
[10] = target: Sterol 14-alpha demethylase (Trypanosoma cruzi (strain CL Brener), UniProt Q7Z1V1); assay: GSK_TCAKS: pIC50 CYP51 from Trypanosoma cruzi.; format: functional
[11] = test system: Trypanosoma brucei brucei; assay: GSK_TCAKS: pIC50 Trypanosoma brucei viability assay using fluorescence intensity. Assay plates (1536-well) were prepared by dispensing 25nL of compound solution per well using an Echo acoustic dispenser (Labcyte).; format: functional, organism-based; conditions: Lister 427, 2 h
[12] = test system: Leishmania donovani; assay: as §2, with “THP-1 Host Macrophages.” for “Amastigotes/Macrophages.”, “THP-1” for “Average number of amastigotes per macrophage”, “cell count” for “cell”; format: functional, organism-based, Homo sapiens

Chain of Sterol 14-alpha demethylase (Q7Z1V1 whole entry): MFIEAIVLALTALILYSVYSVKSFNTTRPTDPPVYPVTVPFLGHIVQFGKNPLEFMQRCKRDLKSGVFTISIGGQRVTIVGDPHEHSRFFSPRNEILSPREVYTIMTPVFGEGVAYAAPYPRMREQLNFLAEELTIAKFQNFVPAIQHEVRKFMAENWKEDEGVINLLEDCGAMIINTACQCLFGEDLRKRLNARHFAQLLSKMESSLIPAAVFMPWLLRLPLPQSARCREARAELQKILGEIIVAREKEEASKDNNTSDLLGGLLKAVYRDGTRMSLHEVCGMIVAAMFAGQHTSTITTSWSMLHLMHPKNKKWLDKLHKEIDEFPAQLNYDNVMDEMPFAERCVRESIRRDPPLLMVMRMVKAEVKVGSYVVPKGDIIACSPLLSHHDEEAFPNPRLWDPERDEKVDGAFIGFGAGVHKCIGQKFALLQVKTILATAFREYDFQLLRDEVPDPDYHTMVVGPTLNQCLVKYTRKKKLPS

Row | Compound | pIC50 [1] | pIC50 [2] | IC50 at 48 h [3] | pIC50 [4] | pIC50 [5] | pIC50 [6] | pIC50 [7] | pIC50 [8] | pIC50 [9] | pIC50 [10] | pIC50 [11] | pIC50 [12]
1 | Cc1cc(NC(=O)CC2CCCCC2)n(-c2nc3c(c(=O)[nH]2)CCC3)n1 | 5.40 | 6.50 | > 100 µM | 5.80 | 6.80 | 6.90 | 6.60 | 7.50 | 5.50 | < 4.00 | 6.70 | 5.40
2 | Cc1ccc2c(c1)SC(C(=O)Nc1nnc(-c3ccccn3)[nH]1)C2 (stereo unspecified) | < 4.30 | 5.10 | 25.1 µM | 5.60 | < 4.40 | 5.20 | 5.30 | 5.20 | 5.40 | < 4.00 | 5.40 | 4.60
3 | Cn1nccc1NC(=O)Cn1ccc(-c2ccncc2)n1 | < 4.30 | < 4.30 | > 100 µM | < 4.30 | 6.20 | < 4.30 | < 4.30 | < 4.30 | < 4.30 | 5.20 | 6.20 | < 4.30
4 | Cc1cn[nH]c1C1CCCN(Cc2nc3ccccc3n2C)C1 (stereo unspecified) | < 4.30 | 4.70 | 50.1 µM | 5.50 | 5.10 | 5.00 | 5.50 | 4.80 | 5.40 | 5.90 | 5.20 | 4.70
5 | COc1ccc(Cl)cc1CC(=O)Nc1nnc(-c2ccccn2)[nH]1 | < 4.30 | < 4.30 | 31.6 µM | 5.30 | < 4.40 | 5.00 | 5.00 | 5.40 | 5.20 | < 4.00 | 4.80 | < 4.30
6 | O=C(Cc1ccc2c(c1)CCC2)Nc1nnc(-c2ccccn2)[nH]1 | < 4.30 | 5.00 | 50.1 µM | 5.20 | < 4.40 | 5.00 | 5.00 | 5.10 | 5.20 | 5.60 | 4.70 | < 4.30
7 | COc1ccc(Nc2nccc(N(C)c3n[nH]c4c(F)cccc34)n2)cc1S(C)(=O)=O | 5.10 | 5.40 | 20 µM | 6.00 | 5.00 | 5.70 | 5.70 | 4.60 | 5.60 | 4.50 | 5.20 | 5.00
8 | COc1ccccc1CNc1cc(C2CC2)nc(-c2nccn2C)n1 | 6.20 | 6.10 | 20 µM | 6.40 | 5.70 | 6.00 | 6.05 | 6.00 | 6.30 | 4.70 | 5.60 | 4.80
9 | COc1ccc(CNc2cc(C3CC3)nc(-c3nccn3C)n2)cc1 | 6.00 | 6.10 | 25.1 µM | 6.10 | 5.60 | 6.20 | 6.00 | 5.70 | 6.10 | 5.30 | 5.90 | 4.90
10 | Cc1ccccc1CNc1cc(C2CC2)nc(-c2nccn2C)n1 | 6.10 | 6.10 | 15.8 µM | 6.20 | 5.80 | 6.10 | 6.10 | 5.80 | 6.20 | 4.80 | 5.60 | 5.00
11 | Cn1ccnc1-c1nc(NCc2ccccc2Cl)cc(C2CC2)n1 | 6.20 | 6.10 | 20 µM | 6.70 | 5.80 | 6.10 | 6.20 | 5.80 | 6.20 | 4.40 | 5.70 | 5.10
12 | Oc1cccnc1-c1nc(Cc2ccccc2)n[nH]1 | 4.80 | 5.10 | 79.4 µM | 5.70 | 5.00 | 5.20 | 5.20 | 5.70 | 5.50 | < 4.00 | 5.30 | 4.80
13 | O=C(Nc1nnc(-c2ccccn2)[nH]1)C1CC1c1ccccc1 (stereo unspecified) | < 4.30 | 4.70 | > 100 µM | 5.10 | 4.70 | 4.80 | 4.80 | 4.90 | 5.10 | < 4.00 | < 4.90 | 4.70
14 | CCOc1ccc(NC(=O)c2ccc(NC(=O)NC3CCCCC3)cc2)cc1 | < 4.30 | < 4.30 | > 100 µM | 5.20 | 6.30 | < 4.30 | 4.50 | < 4.30 | 5.10 | < 4.00 | 6.70 | 5.40
15 | COc1ccc(S(=O)(=O)Nc2ccc(CN3CCN(C(=O)c4cccc(C#N)c4)CC3)cc2)cc1 | < 4.30 | 6.00 | > 100 µM | < 4.30 | 6.20 | 6.10 | 6.00 | 4.50 | < 4.30 | < 4.00 | 6.40 | < 4.30
16 | Cc1ccc(S(=O)(=O)Nc2ccc(CN3CCN(C(=O)c4cccc(C)c4)CC3)cc2)cc1 | < 4.30 | 6.50 | > 100 µM | 4.50 | 6.30 | 6.50 | 6.30 | 4.60 | 4.40 | 4.10 | 6.60 | 4.40
17 | Cc1ccc(Nc2nc(C3CCCN3Cc3cc[nH]n3)cs2)nc1 (stereo unspecified) | 5.00 | 5.70 | 31.6 µM | 5.90 | 5.40 | 5.70 | 6.10 | 4.90 | 5.80 | 5.20 | 6.10 | 4.60
18 | CC(c1ccccn1)N(C)Cc1nc2ccccc2n1C(C)C (stereo unspecified) | < 4.30 | 5.20 | 25.1 µM | 5.70 | 5.00 | 5.70 | 5.80 | 5.00 | 5.50 | 4.50 | 4.90 | 4.80
